Measurements: patent US6380249B1 (dated 2002)

Row | melting point | Compound
1 | 136 to 138 °C | O=C(O)C(=O)CC(=O)c1ccccc1OCc1ccccc1
2 | 83 to 85 °C | COCCOc1c(OC)cc(Cc2ccccc2)cc1C(=O)CC(=O)C(=O)O
3 | 99 to 100 °C | COc1cc(Cc2ccccc2)cc(C(=O)CC(=O)C(=O)O)c1OCCSC
4 | 154 to 155 °C | O=C(O)C(=O)CC(=O)c1cc(Cc2ccccc2)cc2c1OCCO2
5 | 182 to 183 °C | O=C(O)C(=O)CC(=O)c1cc(Cc2ccccc2)cc2c1OCC(O)CO2 (racemic)

The remaining lines, values behind:

Row | Compound | melting point
6 | O=C(O)C(=O)CC(=O)c1cccc(OCc2ccc(F)cc2)c1 | 157 to 158 °C
7 | O=C(O)C(=O)CC(=O)c1ccc2ccn(Cc3ccc(F)cc3)c2c1 | 173 to 174 °C
8 | O=C(O)C(=O)CC(=O)c1cccc2c1ccn2Cc1ccc(F)cc1 | 156 to 157 °C
9 | O=C(O)C(=O)CC(=O)c1cccc(OCc2ccc(F)c(F)c2)c1 | 181 to 182 °C
10 | COc1cc(OCc2ccccc2)cc(C(=O)CC(=O)C(=O)O)c1 | 101 to 102 °C
11 | C=CCCCc1cc(OC)c(OC)c(C(=O)CC(=O)C(=O)O)c1 | 75 to 76 °C
12 | COc1cc(CC2CC2)cc(C(=O)CC(=O)C(=O)O)c1OC | 101 to 103 °C
